{"source": "patent US12030891B2", "about": "“Xanthonic compounds and their use as antifouling agents” (CIIMAR—CENTRO INTERDISCIPLINAR DE INVESTIGACAO MARINHA E …, priority 2018, dated 2024)", "key": {"[1]": {"test_system": "Artemia salina", "test": "Artemia salina lethality bioassay", "assay_type": "in vivo", "details": "even at 50 μM, 48 h of exposure", "experimental": "General toxicity to non-target species was evaluated using the brine shrimp (Artemia salina) lethality test (Meyer et al., 1982). A. salina cysts were allowed to hatch in nutrient-enriched seawater for approximately 48 hours at 25° C. Newly hatched instar I nauplii were harvested for toxicity test performed in 96-wells microplates with eight replicates per condition and 15-20 nauplii per well. Test solutions of the most promising sulfated antifouling compounds (50 and 25 μM) were prepared in filtered seawater. K2Cr2O7 (13.6 μM) was included as positive control and DMSO as negative control. Percentage of mortality was determined at 48 h of exposure."}, "[2]": {"test_system": "Mytilus galloprovincialis larvae", "test": "Anti-settlement bioassay on xanthonic based marine coatings", "assay_type": "in vivo", "details": "for reduction of larval settlement: polyurethane based marine paint coating (1.7 wt. %); for reduction in the larvae settlement: incorporated in polyurethane (PU) marine paint at 2 wt %", "experimental": "None instead, and depending on the xanthonic chemical functionalities and density, minor adjustments on those proportions were performed, in order to maintain the main coatings properties (e.g. curing time and adhesion). In addition, and to promote the compatibility and homogeneity of the antifoulants in the corresponding polymeric formulations, a prior dissolution step, in accurate pure and dehumidified organic solvents, may be comprised, followed by its addition and blending to the paint components system. The selection and content of the organic solvent must also rely on its compatibility with the components of each polymeric system.\nThe antifouling effectiveness of xanthonic based marine coating formulations was assessed by an in vivo anti-settlement bioassay on coated culture multiwell plates, using Mytilus galloprovincialis adhesive mussel plantigrades larvae as target species."}, "[3]": {"test_system": "Phaeodactylum tricornutum", "test": "Algae growth inhibition test (OECD 201)", "assay_type": "cell-based", "experimental": "This test was executed using […], which contains all the material necessary to perform growth inhibition tests with the marine diatom Phaeodactylum Tricornutum. The species of alga Phaeodactylum Tricornutum, were incubated with the testing leaching samples, for 72 hours, in disposable cells of 10 cm path-length. […] This terminology is used instead of the standard EC50 when the test material is not completely soluble at the test treat rates."}, "[4]": {"test_system": "Daphnia magna", "test": "Daphnia acute immobilization test (OECD 202)", "assay_type": "in vivo", "experimental": "This test was performed using DAPHTOXKIT F MAGNATM. Daphnia magna are commonly known as water fleas, due to their jumping swimming resemblance to the movement of the fleas. Its short life span and reproductive capabilities make it an ideal organism for analytical use.\nThe swimming capability of Daphnia Magna was assessed after 48 hours of exposure to the diluted testing samples. The Daphnia were bred in the laboratory and should be no more than 24 hours old. The number of immobilized Daphnia was registered at 24 hours and 48 hours, for the calculation of EL50 and comparison with the control values. The EL50 is the effective concentration of the sample that is expected to cause immobilization to 50% of Daphnia.\nNote that for this toxicity test, the leaching was obtained only from the WAF method test using the samples and Daphnia's mineral medium as […] because standard seawater is harmful to Daphnia."}, "[5]": {"test": "Luminescent Vibrio fischeri ecotoxicity assay (ISO11348)", "assay_type": "cell-based", "details": "luminescent Vibrio fischeri bacteria (NRRL-B-11177), contact time of 30 min, read-out: LC50 (inhibition of light radiation emitted)", "experimental": "Luminescent Vibrio fischeri ecotoxicity assessment (ISO11348) was performed by IK4 TEKNIKER accordingly to the EU hazard assessment of substances and European Ecolabel (ISO 113482). Luminescent Vibrio fischeri bacteria test (NRRL-B-11177) was used as a standard test to evaluate the ecotoxicity of the most promising AF compounds. Vibrio fischeri bacteria from HACH-LANGE GmbH were grown in laboratory in standard conditions according to guidelines and exposed to a dilution serial of each compound (1000, 500, 250, 125, 62.5 mg/L). After 5, 15 and 30 min of exposure, the light emitted as a by-product of Vibrio fischeri cellular respiration was measured at 490 nm. Any inhibition of cellular activity results in a decreased rate of respiration and a corresponding decrease in the rate of luminescence. The decrease of bacterial luminescence measured after 5, 15 or 30 min of exposition was used as test endpoint. Luminescence was measured using a LUMIStox photometer from DR LANGE, after a contact time of 15 min and 30 min at 15±1° C., taking into account a correction factor, fk, which is a measure of intensity change of control samples during the exposure time.\nThe pH of all samples was within the interval 6.0-8.5. A 2% solution of sodium chloride (NaCl) in deionized water (20 g/L) was used as dilution medium and K2Cr2O7 11.3 μg·mL^−1) was used as positive control."}, "[6]": {"test": "Leaching test of antifoulant from coatings (adapted from ISO15181)", "assay_type": "physicochemical", "details": "PU coating, 45 days submerged in artificial seawater"}}, "data": [{"smiles": "COc1cc(CN2CCN(CCO)CC2)c2c(=O)c3ccccc3oc2c1OC", "note": "[XA18, 1-((4-(2-hydroxyethyl)piperazin-1-yl)methyl)-3,4-dimethoxy-9H-xanthen-9-one]", "values": [{"measurement": "toxicity to Artemia salina nauplii", "setting": "[1]", "value": "non-toxic effects"}]}, {"smiles": "COc1cc(C)c2c(=O)c3ccccc3oc2c1OC", "note": "[XA13, 3,4-dimethoxy-1-methyl-9H-xanthen-9-one]", "values": [{"measurement": "reduction of larval settlement", "setting": "[2]; after 40 h", "value": 29, "unit": "%"}, {"measurement": "reduction of larval settlement", "setting": "[2]; first 15 h", "value": 50, "unit": "%"}]}, {"smiles": "COc1cc(CO)c2c(=O)c3ccccc3oc2c1OC", "note": "[XA12, 1-(hydroxymethyl)-3,4-dimethoxy-9H-xanthen-9-one]", "values": [{"measurement": "toxicity to Artemia salina nauplii", "setting": "[1]", "value": "non-toxic effects"}]}, {"smiles": "COc1cc(CN2CCc3c(N)cccc3C2)c2c(=O)c3ccccc3oc2c1OC", "note": "[XA20, 1-((5-amino-3,4-dihydroisoquinolin-2(1H)-yl)methyl)-3,4-dimethoxy-9H-xanthen-9-one]", "values": [{"measurement": "EL50 (72 h) alga growth inhibition", "setting": "[3]", "value": "> 125", "unit": "µg/mL"}, {"measurement": "EL50 (48 h) immobility", "setting": "[4]", "value": "> 300", "unit": "µg/mL"}, {"measurement": "50% inhibition of luminescence concentration (EC50) at 30 min", "setting": "[5]", "value": "> 300", "unit": "µg/mL"}]}, {"smiles": "O=c1c2ccccc2oc2c(O)c(O)ccc12", "note": "[3,4dOHx, 3,4-dihydroxy-9H-xanthen-9-one]", "values": [{"measurement": "incorporated antifoulant leached out of the polymeric matrix", "setting": "[6]", "value": 0.008, "unit": "%"}, {"measurement": "EL50 (72 h) alga growth inhibition", "setting": "[3]", "value": "> 100", "unit": "µg/mL"}, {"measurement": "toxicity to Artemia salina nauplii", "setting": "[1]", "value": "non-toxic effects"}, {"measurement": "50% inhibition of luminescence concentration (EC50) at 30 min", "setting": "[5]", "value": "> 750", "unit": "µg/mL"}, {"measurement": "reduction in the larvae settlement", "setting": "[2]; after 40 h", "value": "about 80%"}, {"measurement": "reduction in the larvae settlement", "setting": "[2]; after the first 15 h", "value": 55, "unit": "%"}]}, {"smiles": "COC(=O)COc1ccc2c(=O)c3ccccc3oc2c1OCC(=O)OC", "note": "[D3,4 OCH3X, dimethyl 2,2′-((9-oxo-9H-xanthene-3,4-diyl)bis(oxy))diacetate]", "values": [{"measurement": "toxicity to Artemia salina nauplii", "setting": "[1]", "value": "non-toxic effects"}]}, {"smiles": "CC1(C)CCc2cc3c(=O)c4ccccc4oc3c(O)c2O1", "note": "[XP13, 12-hydroxy-2,2-dimethyl-3,4-dihydro-2H,6H-pyrano[3,2-b]xanthen-6-one]", "values": [{"measurement": "toxicity to Artemia salina nauplii", "setting": "[1]", "value": "non-toxic effects"}, {"measurement": "50% inhibition of luminescence concentration (EC50) at 30 min", "setting": "[5]", "value": "> 237", "unit": "µg/mL"}]}, {"smiles": "COc1cc(C(Br)Br)c2c(=O)c3ccccc3oc2c1OC", "note": "[XA14, 1-(dibromomethyl)-3,4-dimethoxy-9H-xanthen-9-one]", "values": [{"measurement": "toxicity to Artemia salina nauplii", "setting": "[1]", "value": "non-toxic effects"}]}, {"smiles": "O=C(O)COc1ccc2c(=O)c3ccccc3oc2c1OCC(=O)O", "note": "[D3,4 COOHX, 2,2′-((9-oxo-9H-xanthene-3,4-diyl)bis(oxy))diacetic acid]", "values": [{"measurement": "toxicity to Artemia salina nauplii", "setting": "[1]", "value": "non-toxic effects"}]}, {"smiles": "COc1cc(CN2CCCCC2)c2c(=O)c3ccccc3oc2c1OC", "note": "[XA22, 3,4-dimethoxy-1-(piperidin-1-ylmethyl)-9H-xanthen-9-one]", "values": [{"measurement": "toxicity to Artemia salina nauplii", "setting": "[1]", "value": "non-toxic effects"}]}, {"smiles": "COc1cc(C=O)c2c(=O)c3ccccc3oc2c1OC", "note": "[XA11, 3,4-dimethoxy-9-oxo-9H-xanthene-1-carbaldehyde]", "values": [{"measurement": "toxicity to Artemia salina nauplii", "setting": "[1]", "value": "non-toxic effects"}]}, {"smiles": "COc1cc(CNCCN2CCOCC2)c2c(=O)c3ccccc3oc2c1OC", "note": "[XA15, 3,4-dimethoxy-1-(((2-morpholinoethyl)amino)methyl)-9H-xanthen-9-one]", "values": [{"measurement": "toxicity to Artemia salina nauplii", "setting": "[1]", "value": "non-toxic effects"}]}]}
